For orientation: IC50 means the point on the concentration scale where inhibition reaches its midpoint.

Series [1] relates to MOLM-13 cells. The series is described as follows: Proliferation assay, MOLM-13 (CellTiter-Glo, 7 days). It counts as cell-based, human. The gist of the method:
(§1)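 Cells seeded at 125 (MOLM-13), 300 (MV4;11), 75 (OCI-AML3) or 200 (HEL) per well were exposed to 3.16-fold compound dilutions (0.1% DMSO) for 7 days at 37° C. Viability by CellTiter-Glo luminescence, normalized to DMSO (100%) and day-0 plate (0%); IC50 from one-site dose-response fit.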

For another series, the target named is Menin protein (Homo sapiens, UniProt O00255, DEL460-519). The series can be described thus: Menin/MLL fluorescence polarization (FP) assay. It counts as binding. Particulars: Menin 2 nM, cRho110-Ahx-MBM1/MBM2 peptide 1 nM. Here is the method:
Compounds were tested in a biochemical binding assay using Menin protein at 2 nM (N6his-tev-Menin_4i80, PB-20-1459) and the substrate cRho110-Ahx-MBM1/MBM2 peptide (UbiQ, UbiQ-Q20201030; cRh110-Ahx-[…]-QRVPALLLPPG-NH2) at 1 nM.
384 Low volume black plates (Corning #4514) were used. 5 μL/well compound or 3% DMSO was added at 10-fold serial dilutions in DMSO from 10 μM. 5 μL/well cRho110-Ahx-MBM1/MBM2 peptide or binding buffer (50 mM Tris pH 7.5, 50 mM NaCl, 1 mM TCEP, 0.01% BGG, 0.01% Brij-35) was added to all wells. 5 μL/well Menin protein or binding buffer (50 mM Tris pH 7.5, 50 mM NaCl, 1 mM TCEP, 0.01% BGG, 0.01% Brij-35) was added to all wells. Plates were read on an EnVision plate reader (Perkin Elmer) with excitation at 480 nm and emission at 535 nm P+S, and measured every 5 minutes for 180 minutes.
Data were analyzed in Genedata Screener®. IC50 values were determined by plotting % inhibition versus log compound concentration and using a one site dose response model. Raw data signals were normalized using 1% DMSO no Menin as 100% inhibitor control and 1% DMSO with Menin and no inhibitor as 0% inhibitor control.

Series [2] is described as follows: Human hepatocyte intrinsic clearance assay. Particulars: human hepatocytes. Format: in vitro ADME. Here is the method:
Human hepatocytes (LiverPool™ 10-Donor Human hepatocytes (Mixed Gender, PEG-free, Product No. S01205, 5 million cells per vial) were obtained from BioreclamationIVT. DMSO was sourced from Solarbio S&T Co Ltd. Leibovitz's L-15 Medium, Williams' Medium E, GlutaMAX™-1 (100×), HEPES, DPBS (10×) and Human Recombinant Insulin Solution were purchased from Gibco. Isotonic Percoll Solution was purchased from GE Healthcare. Fetal Bovine Serum (FBS) was purchased from Corning.
10 mM dexamethasone stock solution was prepared by dissolving 3.9 mg dexamethasone in 1 mL of DMSO. An Isotonic Percoll Solution was prepared by dilution of Percoll with DPBS (10×). 15 mL of Isotonic Percoll Solution (90% Percoll/10% DPBS) was added to 31.25 mL William's E medium containing 500 mL of GlutaMAX™-1 (100×), 750 mL of 1M HEPES, 2.5 mL of 5% FBS, 50 mL of 4 mg/mL Human Recombinant Insulin Solution and 5 mL of the 10 mM dexamethasone stock.
2 mL of 10 mM DMSO stock solutions of test compound were added to 198 mL acetonitrile to produce 100 mmol/L concentration.
The human hepatocyte vial was thawed at 37° C. in a waterbath. Once thawed, contents were poured into a 50 mL conical tube and centrifuged at 100 g for 10 minutes. The thawing medium was poured out and 4 mL L-15 medium was added. The tube was gently shaken to resuspend the hepatocytes and cells were counted with an appropriate cell counter. 247.5 mL of the hepatocyte suspension was transferred into each well of the plate and pre-warmed at 600 rpm and 50° C. to enable the temperature to rise to 37° C.
2.5 mL of the […] test compound solution was added to initiate the reaction (final concentration […]) and incubated at 37° C. with shaking at 900 rpm. At 0.5, 5, 15, 30, 45, 60, 80, 100 and 120 minutes, 20 mL was taken into a quenching solution of acetonitrile containing internal standards. The mix was vortexed at 800 rpm for 2 minutes followed by centrifugation for 20 minutes at 4000 rpm at 4° C. 40 mL of supernatant was transferred into a 96 well analysis plate containing 160 mL of water in each well. The analysis plate was shaken at 100 rpm for 2 minutes prior to analysis by LC-MS/MS.
Peak areas were determined from extracted ion chromatograms. Percent parent remaining was calculated from peak area of test compound. The slope value, k, was determined by linear regression of the natural logarithm of percent parent remaining versus incubation time.
The in vitro intrinsic clearance (in vitro CLint in mL/min/10^6 cells) was determined from the slope value using the following equation: […]
where V is the incubation volume (0.25 mL) and N is the number of hepatocytes per well (0.25×10^6 cells).

The test system of a further series is HEL cells. The series can be described thus: Proliferation assay, HEL control cell line (CellTiter-Glo, 7 days). It counts as cell-based, human. The gist of the method: as §1
A short description of series [3]: Human liver microsomes (HLMs) intrinsic clearance assay. It counts as in vitro ADME. (Liver microsomes are a subcellular fraction often used to study metabolism.)
The next series deals with OCI-AML3 cells. The series can be described thus: Proliferation assay, OCI-AML3 (CellTiter-Glo, 7 days). Format: cell-based, human. On the procedure:
(§2) The anti-proliferative effect of compounds was tested in human leukaemia cell lines. The cell lines […] and MV4; 11 each harbor an MLL translocation expressing the MLL fusion proteins MLL-AF9 and MLL-AF4, respectively. Each also express the wildtype protein from the second allele. OCI-AML3 cells carrying the NPM1c gene mutation were also tested.
(§3) MOLM-13 and HEL cells were cultured in RPMI 1640 (Gibco) supplemented with 10% FBS (Gibco) and 1% Pen/Strep (Gibco). MV4; 11 cells were cultured in IMDM (Gibco) supplemented with 10% FBS (Gibco) and 1% Pen/Strep (Gibco). OCI-AML3 cells were cultured in MEMa (Gibco) supplemented with 20% FBS (Gibco) and 1% Pen/Strep (Gibco).
(§4) To assess proliferative effects, 125 MOLM-13 cells, 300 MV4; 11 cells, 75 OCI-AML3 cells, and 200 HEL cells were seeded in 40 μL media per well in 384-well ViewPlates (Perkin Elmer, 6007480). Cell seeding numbers were chosen based on growth curves to ensure linear growth throughout the experiments. Test compounds were added at 3.16-fold serial dilutions in DMSO from […] and DMSO content was normalized to 0.1%. Cells were incubated for 7 days at 37° C. and 5% CO2. A day 0 plate was seeded for each cell line and used as a standard control.
(§5) To measure cell viability, CellTiter-Glo 2.0 (Promega, G9242) luminescent growth indicator was used. 10 μL CellTiter-Glo reagent was added per well. Plates were placed on a plate shaker for 2 minutes in the dark and left to incubate off the shaker for another 8 minutes in the dark, for a total of 10 minutes. Plates were read using an EnVision plate reader (Perkin Elmer) using the Luminescence aperture and a measurement time of 0.1 second.
(§6) Data were analyzed in Genedata Screener®. IC50 values were determined by plotting % inhibition versus log compound concentration and using a one site dose response model. Raw data signals were normalized using 0.1% DMSO media only as background control, 0.1% DMSO with cells no compound as 100% viability (maximum signal), and day 0 0.1% DM with cells no compound as 0% viability (minimum signal).
Background: In ATP-based viability assays light output follows the ATP content of the culture.

The subject of a further series is MV4;11 cells. The series can be described thus: Proliferation assay, MV4;11 (CellTiter-Glo, 7 days). It counts as cell-based, human. The following applies: read-out: MV-4-11 IC50. Here is the method: as §2, §3, §4, §5, §6
The subject of series [4] is MOLM-13 cells. The series can be described thus: Cell death in MOLM-13 cell line, Compound 56-2 with BCL2 inhibitor venetoclax (CellTiter-Glo, 4 days). It counts as cell-based, human. Here is the method:
Test compound was dispensed using a Tecan compound dispenser into 384-well plates (Microplate 384-well, polypropylene, F-bottom; Greiner Bio-One, #781201) in a ten-by-ten response matrix to assess the combination effects of Menin inhibition (Compound 56-2) together with BCL-2 inhibition (venetoclax) at the following concentrations after subsequent cell seeding in 40 μL of growth media: 10 μM, 3.16 μM, 1 μM, 0.316 μM, 0.1 μM, 0.0316 μM, 0.01 μM, 0.00316 μM, […], and vehicle (DMSO; Sigma-Aldrich, D2650). Cells were seeded at 1000 cells per well and incubated at 37° C. and 5% CO2. MOLM-13 cells were grown in RPM1 1640 (Gibco, #21875091) supplemented with 10% FBS (Gibco; #10091-148) and 1% Pen/Strep (Gibco; #15140-122). After 4 days of compound treatment, plates were placed at room temperature for 15 minutes. 10 μL CellTiter-Glo reagent (Promega, #G9242) was added to the cells and incubated for 10 minutes in the dark on a plate shaker at room temperature. A backseal (Perkin Elmer; #6005199) was added to the plates and luminescence was measured at 0.1 sec/well in an Envision (Perkin Elmer). Data were normalized for each plate so that the average of control wells (DMSO) was set to 0%, and the maximum observed value across the plate was set as 100%. Data fitting was performed using Graphpad Prism and combination effect was assessed using SynergyFinder.

Sequence of Menin protein (O00255 with tags, fused parts or gaps DEL460-519): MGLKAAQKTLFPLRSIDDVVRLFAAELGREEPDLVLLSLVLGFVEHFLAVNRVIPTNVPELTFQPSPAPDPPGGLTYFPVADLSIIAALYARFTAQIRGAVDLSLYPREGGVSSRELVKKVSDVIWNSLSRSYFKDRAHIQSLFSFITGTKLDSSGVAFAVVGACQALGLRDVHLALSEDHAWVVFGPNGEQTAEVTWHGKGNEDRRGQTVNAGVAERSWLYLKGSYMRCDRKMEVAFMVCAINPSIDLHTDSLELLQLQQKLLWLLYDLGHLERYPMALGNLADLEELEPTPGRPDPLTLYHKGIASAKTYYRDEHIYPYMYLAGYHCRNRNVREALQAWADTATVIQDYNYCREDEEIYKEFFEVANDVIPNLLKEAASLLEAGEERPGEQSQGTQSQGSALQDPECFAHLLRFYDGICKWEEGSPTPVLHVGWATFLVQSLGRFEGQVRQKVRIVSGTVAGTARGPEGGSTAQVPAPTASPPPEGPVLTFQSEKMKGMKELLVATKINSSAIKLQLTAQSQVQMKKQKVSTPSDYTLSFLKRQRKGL

Regarding `CCN(C(=O)c1cc(F)ccc1-n1c(C)c(C(=O)[C@@H]2CCN(C(=O)[C@@H]3CCC4(CC4)N3)[C@@H](C)C2)c2ccncc21)C(C)C` (single isomer, unassigned) [Example 52-4, N-Ethyl-5-fluoro-N-isopropyl-2-(2-methyl-3-((2R*,4S*)-2-methyl-1-((S)-4-azaspiro[2.4]heptane-5-carbonyl)piperidine-4-carbonyl)-1H-pyrrolo[2,3-c]pyridin-1-yl)benzamide], the IC50 with MOLM-13 cells [1] was 1090 nM; against Menin protein, 2470 nM; with HEL cells, over 10 µM. In series [2], the “HH CLint” value was 7.9 μl/min/1E6. The “HLM CLint” value in series [3] (1 mg/mL HLM, NADPH) is over 300 µL/min/mg.
For the compound `Cc1c(C(=O)[C@@H]2CCN(C(=O)[C@H]3NC[C@@H]4C[C@@H]43)[C@@H](C)C2)c2ccncc2n1-c1ccc(F)cc1C(=O)N(CC(F)(F)F)C(C)C` (single isomer, unassigned) [Example 53-4, 2-(3-((2R*,4S*)-1-((1S,2S,5R)-3-Azabicyclo[3.1.0]hexane-2-carbonyl)-2-methylpiperidine-4-carbonyl)-2-methyl-1H-pyrrolo[2,3-c]pyridin-1-yl)-5-fluoro-N-isopropyl-N-(2,2,2-trifluoroethyl)benzamide], the IC50 in the series on MOLM-13 cells [1] was 71 nM; on Menin protein it was 48 nM; in the series with OCI-AML3 cells, 118 nM; in the series with HEL cells, over 10 µM; with MV4;11 cells, 53 nM. Also, the “HLM CLint” value in series [3] (human, microsomes, 1 µM, pH 7.4) amounted to 89 µL/min/mg.
Consider `CC1(C)CCC(CN2CCN(c3ccc(C(=O)NS(=O)(=O)c4ccc(NCC5CCOCC5)c([N+](=O)[O-])c4)c(Oc4cnc5[nH]ccc5c4)c3)CC2)=C(c2ccc(Cl)cc2)C1` [venetoclax, reference compound], for which the “cell viability as monotherapy (in words)” value with MOLM-13 cells [4] is given as “cell viability loss was induced”.
